Laboratory results published in PubChem BioAssay (NCI).
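Five compound concentrations were applied to cells in 96-well plates for 48 hours; endpoints were derived by simple linear interpolation of the resulting dose-response curve. At the TGI there is no net growth.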

What was measured:
Experiment in all cases: inhibition of tumour cell growth, NCI panel, 48 h
SN12C renal = tested on: SN12C renal
MDA-MB-231 breast = tested on: MDA-MB-231 breast
CAKI-1 renal = tested on: CAKI-1 renal
HOP-92 NSCLC = tested on: HOP-92 NSCLC
A498 renal = tested on: A498 renal
SF-268 CNS = tested on: SF-268 CNS
OVCAR-8 ovarian = tested on: OVCAR-8 ovarian
OVCAR-4 ovarian = tested on: OVCAR-4 ovarian
SF-295 CNS = tested on: SF-295 CNS
K-562 leukemia = tested on: K-562 leukemia

Row | SMILES | TGI (SN12C renal) [µM] | TGI (MDA-MB-231 breast) [µM] | TGI (CAKI-1 renal) [µM] | TGI (HOP-92 NSCLC) [µM] | TGI (A498 renal) [µM] | TGI (SF-268 CNS) [µM] | TGI (OVCAR-8 ovarian) [µM] | TGI (OVCAR-4 ovarian) [µM] | TGI (SF-295 CNS) [µM] | TGI (K-562 leukemia) [µM]
1 | OC1[C@@H]2[C@@H](O)CCCN2C[C@@H](O)[C@H]1O (stereo not given in full) | > 100 | > 100 | > 100 | > 100 | > 100 | > 100 | > 100 | > 100 | > 100 | > 100
2 | COc1ccc2c(c1)C(=O)CC1c3cnccc3C(=O)N21 (stereo not given) | > 100 | > 100 | > 100 | > 100 | > 100 | > 100 | > 100 | > 100 | > 100 | > 100
3 | COc1cccc(N2C(=O)CSC2c2cccc(Oc3ccccc3)c2)c1 (stereo not given) | 25 | 79.1 | 14.3 | 62.8 | 9.33 | 42.9 | 50.7 | 87.5 | > 100 | 11.4
4 | Cn1c(=O)c2[nH]c(N/N=N/c3nncs3)nc2n(C)c1=O | > 100 | > 100 | > 100 | > 100 | > 100 | > 100 | > 100 | > 100 | > 100 | > 100
5 | C/C(CC(O)(C(F)(F)F)C(F)(F)F)=N\NC(N)=O | > 10 | > 10 | > 10 | > 10 | > 10 | > 10 | > 10 | > 10 | > 10 | > 10
6 | CC(C)(C)c1ccc(OCCOc2ccc(C(C)(C)C)cc2N)c(N)c1 | > 100 | > 100 | > 100 | > 100 | > 100 | > 100 | > 100 | > 100 | > 100 | > 100
7 | CC12CCC(CC(=O)/C1=C(/Br)I)C2(C)C (stereo not given) | 29.6 | 17.6 | 31.2 | 31.6 | 33.7 | 28.9 | 34.3 | 29.1 | 3.03 | 26.4
8 | Fc1ccc(C(OCCN2CCN(CCCc3ccccc3)CC2)c2ccc(F)cc2)cc1 | 15.8 | 11.3 | 13.5 | 11.6 | 19.7 | 14.6 | 13 | 15.8 | 15.2 | 16.1
9 | CC(=O)O[C@H]1CC(C)(C)C(=C=C/C(C)=C/C=C/C=C/C=C(C)/C=C2C=C(/C=C/[C@@]34O[C@]3(C)C[C@@H](O)CC4(C)C)C(=O)O/2)[C@](C)(O)C1 | 35.8 | 97.4 | 98.1 | > 100 | > 100 | 43.6 | 25.2 | > 100 | 34.3 | 57.2
10 | CCc1n[nH]c(=O)n1CCCCCCCCCCCCn1c(CC)n[nH]c1=O | > 100 | > 100 | > 100 | > 100 | > 100 | > 100 | > 100 | > 100 | > 100 | > 100
11 | COC1CC(N)(c2ccccc2)C(O)C(C)O1 (stereo not given) | > 100 | > 100 | > 100 | > 100 | > 100 | > 100 | > 100 | > 100 | > 100 | > 100
12 | O=c1[nH]cc(NCCCl)c(=O)[nH]1 | > 100 | > 100 | > 100 | > 100 | > 100 | > 100 | > 100 | > 100 | > 100 | > 100
13 | C[C@@]1(O)C2CC3CC1(c1ccccc1)CC(/C3=N/O)/C2=N\O (stereo not given in full) | > 100 | > 100 | > 100 | > 100 | > 100 | > 100 | > 100 | > 100 | > 100 | > 100
14 | CC(N=NNc1ccc(-c2nc3ccccc3[nH]2)cc1)C(=O)O (stereo not given) | > 100 | > 100 | > 100 | > 100 | > 100 | > 100 | > 100 | > 100 | 72.1 | > 100
15 | COc1cc(C2c3c(ccc4ccccc34)C(=O)C3CCC(=O)N32)cc(OC)c1OC (stereo not given) | > 50 | > 50 | > 50 | > 50 | > 50 | > 50 | > 50 | > 50 | > 50 | > 50
16 | N#CN1C2CCC1CC(=O)C2 | > 100 | > 100 | > 100 | > 100 | > 100 | > 100 | > 100 | > 100 | > 100 | > 100
17 | Cc1ccc(C(=N)c2ccccc2Cc2cccc3ccccc23)c2ccccc12 | > 100 | > 100 | > 100 | > 100 | > 100 | > 100 | > 100 | > 100 | > 100 | > 100
